Common to all, as to experiment: NCI anticancer screen, dose series, 48 h
Assay [1] relates to HOP-18.
The test system of assay [2] is DLD-1.
Assay [3] relates to DMS-114.
The subject of assay [4] is SNB-78.
The subject of assay [5] is M19-MEL.
Assay [6] deals with KM-20L2.
Assay [7] relates to XF498.
The test system of assay [8] is RXF 631.
Assay [9] relates to DMS-273.

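Results reflect a 48-hour exposure of cells in 96-well plates to compound at five concentrations. The concentration for 50% growth inhibition is given as GI50.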 Calls of active or inactive are those of the source. No stated cut-off is given here; in the data, active = GI50 up to about 1.1 µM and inactive = higher.

Regarding `CCc1c(OC(C)=O)c2c(NC3OC(COC(C)=O)C(OC(C)=O)C(OC(C)=O)C3OC(C)=O)nc(SC)nc2oc1=O` (stereo not given), the GI50 in [1], in [2], in assay [3], in [4], in assay [5] and in [6] was > 100 µM (inactive) throughout. Also, the GI50 in [7] and in assay [8] was > 100 µM (inactive) each time.
`CC(C)(C)C1=CC(CCC(=O)Nc2ccccc2[N+](=O)[O-])=NC(S)N1` (stereo not given): the GI50 in [1], in [2], in assay [3], in assay [4], in [5] and in assay [6] was > 100 µM (inactive) in each case. Further, the GI50 in assay [8] was > 100 µM (inactive).
For `S=C1CNC(=S)CN1`, the GI50 in assay [1], in assay [2], in assay [3], in assay [4], in [5] and in assay [6] was > 100 µM (inactive) in each case. Besides, the GI50 in [8] and in assay [9] was > 100 µM (inactive) in each case.
In the case of `Cc1ccc(S(=O)(=O)N/N=C/CN2C(=O)c3ccccc3C2=O)cc1`, the GI50 in assay [2], in assay [3], in assay [5], in assay [6], in assay [7] and in [9] was > 100 µM (inactive) in each case.
Consider `CNC(=O)C1CCc2nnc(-c3ccccc3)n21` (stereo not given), for which the GI50 in [1], in assay [2], in assay [3], in assay [4], in assay [5] and in assay [6] was > 100 µM (inactive) throughout. The GI50 in assay [8] and in assay [9] was > 100 µM (inactive) in each case.
On to `CC(=O)Oc1ccc2c(c1)C(=O)c1nc(C)c(C)nc1C2=O`, for which the GI50 was > 83.2 µM (inactive) in [1]; 42.9 µM (inactive) in assay [2]; 34.8 µM (inactive) in [3]; 48.2 µM (inactive) in assay [4]; 4.61 µM (inactive) in assay [5]; 34 µM (inactive) in assay [6]. Besides, the GI50 is 43.9 µM (inactive) in assay [7], 30.5 µM (inactive) in [8] and > 73.8 µM (inactive) in assay [9].
On to `O=[N+]([O-])c1ccc(Cl)c(C2SCc3nc4ccccc4n32)c1` (stereo not given), for which the GI50 is 5.87 µM (inactive) in [1]; 45.8 µM (inactive) in [2]; 37 µM (inactive) in assay [3]; 34.6 µM (inactive) in assay [4]; 29.6 µM (inactive) in assay [5]; 22.9 µM (inactive) in [9].
Take `CN(C)CCn1cnc2ncccc2c1=O`: the GI50 in assay [2] is > 100 µM (inactive); in [3], 53.1 µM (inactive); in assay [4], > 100 µM (inactive); in [5] it was > 100 µM (inactive); in assay [6], > 100 µM (inactive); in [7], > 100 µM (inactive). For the same compound, the GI50 in assay [9] is > 100 µM (inactive).
Take `O=C(O)c1cc(Cl)cc(NC(=O)C(Cl)Cl)c1Cl`: the GI50 in [1], in [2], in assay [3], in assay [4], in [5] and in assay [6] was > 100 µM (inactive) in each case. Also, the GI50 in assay [7], in assay [8] and in assay [9] was > 100 µM (inactive) each time.
With `O=C(NC1CCCC1=O)c1ccccc1` (stereo not given), the GI50 in assay [2], in [3], in assay [4], in [5], in assay [6] and in assay [7] was > 100 µM (inactive) each time. Also, the GI50 in assay [8] and in assay [9] was > 100 µM (inactive) throughout.
For `CC(=O)Nc1ccc(/C=C/C(=O)c2sc(-c3nc(C)c(C(=O)/C=C/c4ccc(NC(C)=O)cc4)s3)nc2C)cc1`, the GI50 in [2], in assay [3], in assay [4], in assay [5], in assay [6] and in [7] was > 100 µM (inactive) throughout. Moreover, the GI50 in [8] and in assay [9] was > 100 µM (inactive) throughout.
On to `Cn1c(=O)n(C2(C)CSC2)c2ccccc21`, for which the GI50 in assay [2], in assay [3], in assay [5], in [6], in assay [7] and in assay [9] was > 100 µM (inactive) throughout.
As to `CC(C)(C)c1ccc2c(c1)S(=O)(=O)Nc1ccc(Cl)cc1NS(=O)(=O)c1cc(C(C)(C)C)ccc1OCCOCCOCCO2`, the GI50 in [1] was > 100 µM (inactive); in [2] it was 85.7 µM (inactive); in assay [3] it was 36.3 µM (inactive); in [4], 30.6 µM (inactive); in [5] it was 62.4 µM (inactive); in [9], 56.8 µM (inactive).
As to `COC(=O)C1=C(C=O)C2C=CC1C2` (stereo not given), the GI50 in assay [1] is 30.5 µM (inactive); in assay [2] it was 27.9 µM (inactive); in [3] it was > 57.7 µM (inactive); in [4], 74.1 µM (inactive); in [5] it was > 45 µM (inactive); in [6] it was > 63 µM (inactive). The GI50 in [7] is 27.2 µM (inactive); in assay [8], > 100 µM (inactive); in assay [9], > 44.2 µM (inactive).
For the compound `O=C(CC1(O)C(=O)Nc2ccccc21)c1ccc(F)cc1` (stereo not given), the GI50 in assay [2], in assay [3], in [4], in assay [5], in assay [6] and in assay [7] was > 100 µM (inactive) in each case. In addition, the GI50 in assay [9] was > 100 µM (inactive).
As to `NC(=O)N=C(N(Cc1ccccc1)Cc1ccccc1)N(Cc1ccccc1)Cc1ccccc1`, the GI50 in [2] is 4.83 µM (inactive); in [4] it was 25.1 µM (inactive); in [5] it was > 100 µM (inactive); in assay [6], 2.69 µM (inactive); in assay [9] it was 3.41 µM (inactive).
On to `CC(c1ccc2c(c1)CCC1C2CC2OC23CC=CC(=O)[C@]13C)C1C[C@]2(C)O[C@]2(C)[C@H](O)O1` (stereo not given in full), for which the GI50 in assay [3] was 0.429 µM (active); in assay [5], 34.4 µM (inactive); in assay [6] it was 34.8 µM (inactive); in assay [7] it was 56.9 µM (inactive); in assay [9], 21.7 µM (inactive).
With `Nc1ncn(C2C=C(CO)C(O)C2O)c(=O)n1` (stereo not given), the GI50 was > 100 µM (inactive) in assay [1]; 63.5 µM (inactive) in assay [2]; > 100 µM (inactive) in [4]; > 100 µM (inactive) in assay [5]; 66.1 µM (inactive) in assay [6]; 47.6 µM (inactive) in assay [8]. Also, the GI50 in assay [9] is > 100 µM (inactive).
As for `COc1ccc(/C=C2\CCc3ccccc3C2=O)cc1OC`, the GI50 in [1] is 33 µM (inactive); in assay [2] it was 21.9 µM (inactive); in assay [3] it was 17.1 µM (inactive); in [4] it was 33.7 µM (inactive); in assay [5] it was 30.1 µM (inactive); in assay [6] it was 30.8 µM (inactive). Besides, the GI50 in assay [7] is 17.7 µM (inactive).
Consider `Nc1nc(=O)n([C@@H]2CC[C@H](CO)O2)cc1F`, for which the GI50 in [1], in assay [2], in assay [3], in [4], in [6] and in [9] was > 100 µM (inactive) each time.
With `COc1cc(NS(C)(=O)=O)ccc1Nc1c2ccccc2nc2ccccc12` [AMSACRINE], the GI50 in [1] was 0.7 µM (active); in assay [2], 2.79 µM (inactive); in [3], 0.184 µM (active); in [4] it was 3.97 µM (inactive); in assay [5], 1.89 µM (inactive); in assay [6], 1.45 µM (inactive). Moreover, the figures for the GI50 in assay [8] and in assay [9] were 0.509 µM (active) and 0.0659 µM (active), respectively.

The values are drawn from ChEMBL document CHEMBL1201862, “PubChem BioAssay data set” (2004).
